Legend:
[1] = test system: Raf-1; assay: Raf-1 activity after co-expression with KSR in COS-7 cells; assay type: cell-based, human (Raf-1 expressed in COS-7 cells)
Experimental: Some studies used untagged KSR (n=4) and yielded identical results. At 60 hours post-transfection, cells were lysed with RIPA buffer (NP-40 buffer containing 0.1% SDS and 0.1% deoxy cholate). […] […]. The samples were boiled for 5 min, resolved with SDS-PAGE (7.5%) and autoradiographed.
[…]. After 30 min, the reaction was stopped by addition of Laemmli sample buffer and phosphorylated MBP were resolved by 15% SDS-PAGE, prior to autoradiography.
; a kind gift of Dr. Natalie Ahn) or 1.25 μg recombinant human MEK1 (Santa Cruz), 0.625 μg recombinant human ERK1 (UBI) and myelin basic protein (MBP). After 20-30 min, the reaction was stopped by addition of SDS sample buffer. […]

[2] = test system: ceramide-activated protein kinase; assay: Ceramide-activated protein kinase activity (EGFR peptide) in EL-4 cell fractions; conditions: 10 nM to 1 μM
Experimental: Effect of IL-1β on ceramide-activated protein kinase activity. […] Homogenates were centrifuged at 500×g for 5 minutes to remove nuclei and at 200,000×g for 30 minutes to prepare microsomal membranes. Membranes were resuspended into homogenizing buffer (2.2 μg membrane protein μl^-1). For assay of kinase activity, the reaction mixture contained 20 μl of microsomal membrane, 40 μl EGFR peptide (4 mg ml^-1 in 25 mM Hepes, pH 7.4) and 100 μl buffer (50 mM HEPES, pH 7.4, 20 mM MgCl2). Phosphorylation was initiated at 22° C. by addition of 40 μl [γ-^32 P] ATP (100 μM final concentration) and terminated at the indicated times by addition of 40 μl of 0.5 M ATP in 90% formic acid. Phosphorylated peptide was eluted from a C18 Sep pak cartridge (Millipore), lyophilized, and resolved by C18 reverse phase HPLC using a linear gradient of acetonitrile. […] All assays were performed under conditions determined as linear for time and enzyme concentration. Enzyme activity was determined from the percent conversion of substrate to product and the specific radioactivity of [γ-^32 P] ATP. […] Values (mean±range) represent duplicate determinations from two experiments.
Activity was measured by the transfer of ^32 P from the γ-position of ATP to EGFR peptide (AA 663-681 of the EGFR). The effect of IL-1β on kinase activity was determined using microsomal membranes derived from cells stimulated with IL-1β.

[3] = test system: ceramide-activated protein kinase; conditions: ceramide 0.001 to 3 μM, of the control, ref. [40]; cited from earlier work
[4] = test system: Raf-1; assay: Activation of Raf-1 by KSR in vitro (MEK1 phosphorylation)
[5] = test system: ceramide-activated protein kinase; assay: EGFR peptide phosphorylation by kinase in A-431 microsomal membranes / postnuclear supernatant; assay type: biochemical, human (A-431 epidermoid carcinoma cells)
Experimental: Kinetics of ^32 Pi incorporation into the EGFR peptide. […] The reaction was initiated by addition of 50 μl of [γ-^32 P]ATP (150 μM final concentration) and terminated by addition of 50 μl of 0.5 M ATP in 90% (vol/vol) formic acid. Samples were spotted on phosphocellulose paper, washed with 1 M acetic acid/4 mM pyrophosphate, and ^32 P incorporation was measured by liquid-scintillation counting, as described. A boiled protein blank was subtracted from each data value. The data (means) represent duplicate samples from one of two similar experiments. […]
Kinetics of ceramide-induced ^32 Pi incorporation into EGFR peptide. Peptide phosphorylation was done as described in FIG. 2 in the absence (.smallcircle.) or presence (.circle-solid.) of 0.5 μM C8 -ceramide. Phosphorylated peptide was resolved by HPLC. Values (means) represent data from three experiments.
Concentration-dependence of ceramide-induced ^32 Pi incorporation into EGFR peptide. Peptide phosphorylation reactions were done as described for FIG. 2, for 2 minutes, using various concentrations of ceramide (0.001-3 μM). Phosphorylated peptide was resolved by HPLC. Values (means) represent data from three experiments. […]
Phosphorylation was initiated at 22° C. by addition of 50 μl of [γ-^32 P] ATP (150 μM final concentration; 4000 dpm/pmol). For studies with lipid activators, ceramide and other lipids were dried under N2 and resuspended in the kinase assay buffer by bath sonication for 2 minutes at 37° C.
Phosphorylated peptide was quantified by two separate methods. For initial studies, samples were spotted on phosphocellulose paper, washed in 1 M acetic acid/4 mM pyrophosphate and subjected to liquid scintillation counting, according to methods well known to those skilled in the art. Values obtained from a boiled blank or a sample lacking peptide were subtracted from each determination. Alternatively, HPLC was done according to methods well known to those skilled in the art. For these studies, samples were first applied to a C18 Sep-Pak cartridge and eluted with 99.9% acetonitrile/0.1% trifluoroacetic acid. The eluates were lyophilized, resuspended in 6 M guanidine hydrochloride/200 mM Tris, pH 8.5 and applied to a C18 reverse-phase column (Dynamax, 4.6 mm i.d., Rainin, Woburn, Mass.). The peptide was eluted with a linear gradient (1% per minute) of acetonitrile at a flow rate of 1 ml/minute and was detected by measuring the Cerenkov radiation associated with 1-ml fractions.

[6] = test system: Raf-1; assay: Kinase activity of immunoprecipitated Raf-1 toward MEK1 after HL-60 cell stimulation; assay type: cell-based, human (HL-60 cells)
Experimental: Recovery of MEK1 was monitored by western blot (Bottom Panel). Identical results were obtained with cells stimulated for 5 min with TNF.
Recovery of MEK1 was monitored by western blot (Bottom Panel).
These studies indicate that Raf-1 is a component of the sphingomyelin pathway mediating TNF action.
MEK1 autophosphorylation was for 45 min. An autoradiogram of MEK1 phosphorylation (top panel) and recovery of MEK1 protein by western blot (bottom panel) are shown. For western blot, proteins separated by SDS-PAGE were electrotransferred to an Immobilon PVDF membrane at 12 volts overnight at 4° C. Membranes were then blocked with 2% BSA in TBS [20 mM Tris, pH 7.6, 137 mM NaCl] for 1 hr and washed with TBST (TBS containing 0.2% Tween-20).

[7] = test system: ceramide-activated protein kinase; conditions: treatment of intact cells; literature; cited from earlier work
[8] = test system: Raf-1; assay: Raf-1 phosphorylation in intact HL-60 cells; assay type: cell-based, human (HL-60 cells); conditions: TNF 1 nM; ceramide; sphingomyelinase 10 mU/ml
Experimental: To examine this possibility, intact HL-60 cells were metabolically labeled with ^32 P-orthophosphate for 4 hr followed by stimulation with TNF for the indicated times (FIG. 20A). […] Raf-1 proteins were resolved by SDS-PAGE and autoradiographed.
FIG. 20A--300×10^6 cells were resuspended at 37° C. in 15 ml of serum-free phosphate-free RPMI medium ([…]) containing 6 mCi ^32 P-orthophosphate. After […], cells were resuspended into the same buffer without radiolabel (5×10^7 /point) and stimulated with TNF (1 nM). At the indicated times, ice-cold serum-free phosphate-free RPMI was added and cells were homogenized as described in FIG. 17 in RIPA lysis buffer. Cell debris was removed by centrifugation at 700×g for 5 min. […] After SDS-PAGE, Raf-1 was transferred to an Immobilon PVDF (Millipore) membrane according to the vendor's instructions. […] The data (CPM/Raf protein) are presented as fold of control and represent one of three studies performed in triplicate.

Substance | Raf-1 activation in COS-7 cells co-expressing KSR [1] | enhancement of kinase activity, of control [2] | maximum enhancement of kinase activity [3] | KSR-dependent Raf-1 activity toward MEK1 in vitro [4] | activation of Raf-1 by ceramide in the absence of KSR [4] | duration of stimulation ([5]; 0.5 μM ceramide) | onset of stimulation of EGFR peptide phosphorylation ([5]; 0.5 μM ceramide) | increase in kinase activity ([5]; 0.5 μM ceramide, by 30 s) | lowest effective concentration ([5]; 2 minutes of stimulation) | EGFR peptide phosphorylation, fold of control ([5]; 2 minutes of stimulation, maximal effect for ceramide at 1 μM) | EC50 ([5]; 2 minutes of stimulation, read-out: ED50 for EGFR peptide phosphorylation) | concentration inducing maximal phosphorylation ([5]; EGFR peptide phosphorylation) | lowest effective concentration ([5]; EGFR peptide phosphorylation, A-431) | effect on EGFR peptide phosphorylation ([5]; words) | effect on kinase activity of Raf-1 toward MEK1 [6] | enhancement of CAP kinase autophosphorylation / activity [7] | Raf-1 phosphorylation in intact HL-60 cells [8]
Raf-1(T269V) | not activated | – | – | – | – | – | – | – | – | – | – | – | – | – | – | – | –
ceramide | – | 1.5-2.5 of control | two-fold | markedly enhanced | not stimulated | at least 15 minutes | ≤ 30 s | 2 fold | 1 nM | 2.1 fold of control | ~30 nM | 1 µM | 1 nM | similarly effective | similarly enhanced activity toward MEK1 | 5-10 fold | similarly induced Raf-1 phosphorylation
Raf-1(T268V) | as effectively as wild type Raf-1 | – | – | – | – | – | – | – | – | – | – | – | – | – | – | – | –

— patent publication US6040149A, “Assay for identifying agents which act on the ceramide-activated protein kinase, kinase suppressor of ras, and methods of using said agents” (priority 1997, dated 2000)
